For one data set, the target named is 3CLpro of SARS-CoV (Severe acute respiratory syndrome coronavirus, UniProt P0C6X7). Kind of data set: biochemical.
For the next data set, the target named is 3CLpro of MERS-CoV (Middle East respiratory syndrome-related coronavirus, UniProt K9N7C7). Description: biochemical.
For data set [1], the system named is MERSMA-CoV. To be noted: mouse, in vivo, 50 mg/kg/day.
Data set [2] deals with FIPV. Description: microbe, parasite or virus in culture. It counts as cell-based, feline infectious peritonitis virus. Particulars: Alphacoronavirus 1, CRFK, 24 h, read-out: EC50 in cell culture, FIPV.
Another data set concerns MHV. Description: microbe, parasite or virus in culture. In kind it is cell-based, mouse hepatitis virus. Particulars: Murine coronavirus, L929, 24 h, read-out: EC50 in cell culture, MHV.
In the next data set the target is T1, 3CLpro of SARS-CoV-2 (Severe acute respiratory syndrome coronavirus 2, UniProt P0DTD1).
T1 construct: His6 (N); made in house; host or cells: E. coli (inferred from the pET-28a(+) vector)
Description: biochemical.

The subject of data set [3] is SARS-CoV-2. Description: microbe, parasite or virus in culture. To be noted: Severe acute respiratory syndrome coronavirus 2, Vero C1008, read-out: EC50 in cell culture, SARS-CoV-2. It counts as cell-based.
The subject of a further data set is MERS-CoV. Description: microbe, parasite or virus in culture. In kind it is cell-based.
For data set [4], the system named is SARS-CoV-2. Kind of data set: microbe, parasite or virus in culture. It counts as cell-based.
The subject of data set [5] is MERSMA-CoV. Particulars: mouse, in vivo.
In data set [6] the test system is FIPV. Particulars: read-out: EC50 in cell culture, FIPV; cited from earlier work.
The subject of data set [7] is feline infectious peritonitis (FIP). To be noted: in vivo; cited from earlier work.
[8] abbreviates: Middle East respiratory syndrome-related coronavirus, Huh-7, read-out: EC50 in cell culture, MERS-CoV.

Several values for one entry are separate records, joined by “and”; a condition that tells them apart may be missing. Equal entries are not always repeated. Where two headings read alike, the source gives them in different places.

Broadly, the IC50 is the concentration at which inhibition is half-maximal. Low readings indicate greater potency in that assay, high ones weaker potency in that assay. The EC50 is the midpoint of the concentration-response curve. In general, inhibition refers to how much of the control response was suppressed.

Sequence of 3CLpro of MERS-CoV (K9N7C7 3248-3553 limits assumed): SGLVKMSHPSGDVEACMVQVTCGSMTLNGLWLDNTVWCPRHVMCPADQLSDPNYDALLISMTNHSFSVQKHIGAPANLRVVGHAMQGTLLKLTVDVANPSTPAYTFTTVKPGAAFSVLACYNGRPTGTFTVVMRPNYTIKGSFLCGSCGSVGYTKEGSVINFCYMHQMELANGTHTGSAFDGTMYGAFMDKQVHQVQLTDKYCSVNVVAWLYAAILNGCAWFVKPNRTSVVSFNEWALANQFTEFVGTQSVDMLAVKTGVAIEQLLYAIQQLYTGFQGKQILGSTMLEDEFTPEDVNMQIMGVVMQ

For the compound `CC(C)C[C@H](NC(=O)OC1CCC(F)(F)CC1)C(=O)N[C@H](C=O)C[C@@H]1CCNC1=O` [Compound 6h], the IC50 was found to be 2300 ± 300 nM at 3CLpro of SARS-CoV, 70 ± 10 nM at 3CLpro of MERS-CoV and 430 ± 100 nM on 3CLpro of SARS-CoV-2. Further, the body weight result with MERSMA-CoV [1] (ip) was “continued to lose body weight until 6 dpi but then started to gain weight from 9 dpi”. In the data set with MERSMA-CoV [1] (ip), the “survival at the end of the study (15 dpi)” value is 40%. Also, the EC50 is 120 ± 50 nM in the data set on FIPV [2], 80 ± 50 nM with MHV and 900 ± 800 nM with SARS-CoV-2 [3]. This compound also gave a CC50 in “in vitro” greater than 100000 nM.

For the compound `CC(C)C[C@H](NC(=O)OC1CCC(F)(F)CC1)C(=O)N[C@@H](C[C@@H]1CCNC1=O)C(O)S(=O)(=O)O` (stereo partly shown) [Compound 7h], the IC50 against 3CLpro of SARS-CoV is 2200 ± 100 nM; at 3CLpro of MERS-CoV, 80 ± 10 nM; against 3CLpro of SARS-CoV-2, 410 ± 100 nM. The EC50 is 120 ± 60 nM in the data set with FIPV [2], 110 ± 80 nM in the data set with MHV and 210 ± 100 nM in the data set on MERS-CoV (setting [8]). The “EC50 in cell culture, MERS-CoV” value in the data set on MERS-CoV is “submicromolar”. This compound also had a CC50 in the data set “in vitro” greater than 100000 nM.

Turning to `CCCC1CCC(OC(=O)N[C@@H](CC(C)C)C(=O)N[C@H](C=O)C[C@@H]2CCNC2=O)CC1` (stereo partly shown) [Compound 6c], the concentration for a half-maximal effect (EC50) came to 120 ± 10 nM with FIPV [2], 130 ± 50 nM in the data set on MHV, 50 ± 60 nM in the data set on MERS-CoV (setting [8]) and 250 ± 150 nM in the data set on SARS-CoV-2 [3]. For the same compound, the “EC50 in cell culture, MERS-CoV” value in the data set with MERS-CoV was “submicromolar”. This compound also returned a CC50 in “in vitro” greater than 100000 nM. 280 ± 50 nM corresponded to half-maximal inhibition against 3CLpro of SARS-CoV-2 (IC50).

Consider `CCCCC1CCC(OC(=O)N[C@@H](CC(C)C)C(=O)N[C@H](C=O)C[C@@H]2CCNC2=O)CC1` (stereo partly shown) [Compound 6e], for which the IC50 at 3CLpro of SARS-CoV came to 900 ± 100 nM; against 3CLpro of MERS-CoV, 150 ± 20 nM; at 3CLpro of SARS-CoV-2, 170 ± 60 nM. Moreover, the 50% effective concentration (EC50) was found to be 220 ± 30 nM with FIPV [2], 120 ± 40 nM in the data set on MHV and 150 ± 140 nM with SARS-CoV-2 [3]. The CC50 in “in vitro” came out at 63300 ± 2300 nM. In addition, the “inhibition of viral replication” value in the data set on SARS-CoV-2 [4] is recorded as “about 10 fold”. Further, the inhibition at 0.5 µM in the data set on SARS-CoV-2 [4] (Severe acute respiratory syndrome coronavirus 2, Epithelial cell, read-out: inhibition of virus replication) was roughly 50%.

With `CC(C)C[C@H](NC(=O)OC1CCCCC1)C(=O)N[C@H](C=O)C[C@@H]1CCNC1=O` [Compound 6a], the IC50 against 3CLpro of SARS-CoV was found to be 3900 ± 300 nM; against 3CLpro of MERS-CoV it was 350 ± 100 nM; on 3CLpro of SARS-CoV-2, 820 ± 100 nM. In addition, the EC50 in the data set with FIPV [2] is 90 ± 20 nM; with MHV, 120 ± 50 nM. This compound also had a CC50 in “in vitro” greater than 100000 nM.

As for `CCCCC1CCC(OC(=O)N[C@@H](CC(C)C)C(=O)N[C@@H](C[C@@H]2CCNC2=O)C(O)S(=O)(=O)O)CC1` (stereo partly shown) [Compound 7e], the half-inhibitory concentration (IC50) at 3CLpro of SARS-CoV is 1000 ± 100 nM; on 3CLpro of MERS-CoV it was 130 ± 60 nM; against 3CLpro of SARS-CoV-2 it was 200 ± 60 nM. The 50% effective concentration (EC50) in the data set on FIPV [2] was 170 ± 20 nM; in the data set on MHV, 130 ± 20 nM; in the data set on MERS-CoV (setting [8]), 530 ± 200 nM. Besides, the “EC50 in cell culture, MERS-CoV” value with MERS-CoV was “submicromolar”. For the same compound, the CC50 in the data set “in vitro” stood at 59100 ± 3500 nM.

With `CC(C)C[C@H](NC(=O)OC1CCCCC1)C(=O)N[C@@H](C[C@@H]1CCNC1=O)C(O)S(=O)(=O)O` (stereo partly shown) [Compound 7a], the figures for the IC50 against 3CLpro of SARS-CoV, at 3CLpro of MERS-CoV and on 3CLpro of SARS-CoV-2 were 3800 ± 400 nM, 150 ± 10 nM and 650 ± 60 nM, respectively. Besides, the half-maximal effective concentration (EC50) in the data set with FIPV [2] came to 70 ± 20 nM; with MHV, 80 ± 30 nM; in the data set with MERS-CoV (setting [8]), 80 ± 100 nM. In addition, in the data set with MERS-CoV, the “EC50 in cell culture, MERS-CoV” value is on record as “submicromolar”. In the data set “in vitro”, this compound yielded a CC50 greater than 100000 nM.

`CC(C)C[C@H](NC(=O)OCC1CCC(F)(F)CC1)C(=O)N[C@H](C=O)C[C@@H]1CCNC1=O` [Compound 6j]: the body weight entry in the data set on MERSMA-CoV [1] is listed as “regained the lost weight by 15 dpi”. Moreover, in the data set on MERSMA-CoV [1] (ip), the body weight result is listed as “rapidly recovered from body weight loss starting at 3 dpi” and the “survival at the end of the study (15 dpi)” value was “all mice treated with compound 6j were alive”. The EC50 in the data set with FIPV [2] was 80 ± 20 nM. Also, the “EC50 in cell culture, MERS-CoV” value in the data set on MERS-CoV is on record as “submicromolar”. The EC50 in the data set on MERS-CoV (setting [8]) amounted to 40 ± 20 nM. This compound also gave a CC50 in “in vitro” greater than 100000 nM. Besides, in the data set on SARS-CoV-2 [4], the “inhibition of viral replication” value is listed as “about 10 fold” and the “inhibition of virus replication” value was 100 fold. Besides, the “Virus titers (log10)” value with SARS-CoV-2 [4] (48 hours) was 6.35 ± 0.02 log10 and 6.10 ± 0.09 log10 and 6.30 ± 0.1 log10. Besides, in the data set on MERSMA-CoV [5], the “Edema in the lungs (score 0 to 4)” value is on record as “reduced compared to control mice”, the Lung virus titers entry is “decreased”, the “Scores for hyaline membrane formation (0 to 4)” value is on record as “reduced in 6j-treated mice but were not statistically different from control mice” and the “lung lesions (histopathology)” value was “few observed lesions”.

Consider `CC(C)C[C@H](NC(=O)OCc1ccccc1)C(=O)N[C@@H](C[C@@H]1CCNC1=O)C(O)S(=O)(=O)O` (stereo partly shown) [GC376, reference compound], for which the 50% effective concentration (EC50) in the data set with MERS-CoV (setting [8]) is roughly 1000 nM; in the data set with MERS-CoV (read-out: EC50 in cell culture, MERS-CoV) it was 900 ± 200 nM; in the data set with FIPV [6], 40 nM. For the same compound, the CC50 in the data set “in vitro” was greater than 100000 nM. For the same compound, the “progression of FIP” value in data set [7] was “reversed the progression of FIP and resulted in clinical remission”.

Regarding `CC(C)C[C@H](NC(=O)OCC1CCC(F)(F)CC1)C(=O)N[C@@H](C[C@@H]1CCNC1=O)C(O)S(=O)(=O)O` (stereo partly shown) [Compound 7j], the concentration for half-maximal inhibition (IC50) against 3CLpro of SARS-CoV amounted to 1100 ± 100 nM; on 3CLpro of MERS-CoV, 100 ± 10 nM; at 3CLpro of SARS-CoV-2 it was 450 ± 100 nM. The EC50 in the data set with FIPV [2] worked out at 70 ± 10 nM; with MHV, 160 ± 50 nM. In addition, in “in vitro”, the CC50 is greater than 100000 nM.

`CCCC1CCC(OC(=O)N[C@@H](CC(C)C)C(=O)N[C@@H](C[C@@H]2CCNC2=O)C(O)S(=O)(=O)O)CC1` (stereo partly shown) [Compound 7c]: the IC50 against 3CLpro of MERS-CoV worked out at 100 ± 40 nM; at 3CLpro of SARS-CoV-2, 230 ± 50 nM. In addition, the EC50 with FIPV [2] was determined as 170 ± 30 nM; in the data set with MHV, 160 ± 80 nM. In the data set “in vitro”, this compound yielded a CC50 greater than 100000 nM.

The record behind these values is publication PMC7574915 (Science Translational Medicine, 2020).
